Laboratory results from patent US4404378A, “2-Substituted or unsubstituted aminocarbonyloxyalkyl-1,4-dihydropyridines” (Banyu Pharmaceutical Co., Ltd., priority 1981, dated 1983).
Converted amounts (≈) assume the structure as drawn. Like-named read-outs stand apart in the source and are kept apart here.

Legend:
[1] = Acute toxicity, i.v., up-and-down method; conditions: mouse, in vivo, iv
[2] = test system: isolated hearts of rabbits; assay: Coronary vasodilation in isolated rabbit hearts (Langendorff method); conditions: Oryctolagus cuniculus, isolated rabbit heart, dosage required to increase coronary outflow by 50%, read-out: Coronary vasodilation ICD50
Procedure: (a) Coronary vasodilation According to Langendorff method (O. Langendorff; Pflugers arch. ges. phisiol., 61, 291-332 (1895)), the coronary vasodilation effects were tested using isolated hearts of rabbits.

Beagle dogs = assay: Coronary effects on dogs; assay type: in vivo, dog
Procedure: (c) Coronary effects on dogs Beagle dogs (13 to 16 kg. .male.) were subjected to thoracotomy under anesthesia with sodium pentobarbital, and a probe was attached to the heart left coronary anterior descending artery of each animal, whereupon the coronary blood flow (CF) was measured by an electromagnetic flowmeter. On the other hand, a probe was attached to the exposed right femoral artery, and the femoral artery blood flow (FAF) was measured by an electromagnetic flowmeter. A canule was inserted to the left femoral artery, and the systemic blood pressure (BP) was bloody measured by a transducer. The heart rate (HR) was measured by an electrocardiogram. The sample solution was intravenously injected to the right femoral vein. The coronary blood flow (CF), the femoral artery blood flow (FAF) and the heart rate (HR) were represented by a % increase upon the injection of each sample as compared with the respective control value upon the injection of a saline. […]

| SMILES | LD50 [1] [mg/kg] | EC50 ([2]; Table 1(b)) [µg/mL] | EC50 ([2]; Table 1(a)) [µg/mL] | further results |
| --- | --- | --- | --- | --- |
| CCCOCCOC(=O)C1=C(C)NC(COC(N)=O)=C(C(=O)OCC)C1c1ccccc1[N+](=O)[O-] (stereo not drawn) [(10), 2-Aminocarbonyloxymethyl-6-methyl-4-(2-nitrophenyl)-3-ethoxycarbonyl-5-(β-propoxyethoxy)carbonyl-1,4-dihydropyridine] | 84 | 0.3 (≈ 0.61 µM) | – | – |
| CCCOCCOC(=O)C1=C(C)NC(COC(N)=O)=C(C(=O)OCC)C1c1cccc([N+](=O)[O-])c1 (stereo not drawn) [(9), 2-Aminocarbonyloxymethyl-6-methyl-4-(3-nitrophenyl)-3-ethoxycarbonyl-5-(β-propoxyethoxy)carbonyl-1,4-dihydropyridine] | 136 | 0.34 (≈ 0.692 µM) | – | – |
| CCOC(=O)C1=C(COC(=O)Nc2ccccc2)NC(C)=C(C(=O)OC(C)C)C1c1cccc([N+](=O)[O-])c1 (stereo not drawn) [(22), 2-N--Phenylaminocarbonyloxymethyl-6-methyl-4-(3-nitrophenyl)-3-ethoxycarbonyl-5-isopropoxycarbonyl-1,4-dihydropyridine] | 80 | 0.33 (≈ 0.63 µM) | – | – |
| CCOC(=O)C1=C(C)NC(COC(N)=O)=C(C(=O)OCC)C1c1cccc([N+](=O)[O-])c1 (stereo not drawn) [(1)] | 207 | – | 0.24 (≈ 0.554 µM) | – |
| COCCOC(=O)C1=C(C)NC(COC(N)=O)=C(C(=O)OCCOC)C1c1ccccc1Cl (stereo not drawn) [(20), 2-Aminocarbonyloxymethyl-6-methyl-4-(2-chlorophenyl)-3,5-bis[(β-methoxyethoxy)carbonyl]-1,4-dihydropyridine] | 184 | 0.36 (≈ 0.745 µM) | – | – |
| COC(=O)C1=C(COC(N)=O)NC(C)=C(C(=O)OCCN2CCOCC2)C1c1cccc([N+](=O)[O-])c1 (stereo not drawn) [(18), 2-Aminocarbonyloxymethyl-6-methyl-4-(3-nitrophenyl)-3-methoxycarbonyl-5-(β-morpholinoethoxy)carbonyl-1,4-dihydropyridine] | > 200 | 1.5 (≈ 2.97 µM) | – | – |
| COC(=O)C1=C(COC(N)=O)NC(C)=C(C(=O)OCCN2CCN(C)CC2)C1c1cccc([N+](=O)[O-])c1 (stereo not drawn) [(17), 2-Aminocarbonyloxymethyl-6-methyl-4-(3-nitrophenyl)-3-methoxycarbonyl-5-[β-(4-methyl-1-piperazinyl)ethoxycarbonyl]-1,4-dihydropyridine] | 68 | 2 (≈ 3.86 µM) | – | – |
| CCOC(=O)C1=C(COC(=O)Nc2ccc(Cl)cc2)NC(C)=C(C(=O)OC(C)C)C1c1cccc([N+](=O)[O-])c1 (stereo not drawn) [(21), 2-(4-chlorophenyl)aminocarbonyloxymethyl-6-methyl-4-(3-nitrophenyl)-3-ethoxycarbonyl-5-isopropoxycarbonyl-1,4-dihydropyridine] | 83 | 0.28 (≈ 0.502 µM) | – | – |
| CCCOCCOC(=O)C1=C(C)NC(COC(N)=O)=C(C(=O)OCCOCCC)C1c1cccc([N+](=O)[O-])c1 (stereo not drawn) [(12), 2-Aminocarbonyloxymethyl-6-methyl-4-(3-nitrophenyl)-3,5-bis[(β-propoxyethoxy)carbonyl]-1,4-dihydropyridine] | 123 | 0.15 (≈ 0.273 µM) | – | – |
| CCOC(=O)C1=C(C)NC(COC(N)=O)=C(C(=O)OCC)C1c1ccccc1[N+](=O)[O-] (stereo not drawn) [(5), 2-Aminocarbonyloxymethyl-6-methyl-4-(2-nitrophenyl)-3,5-diethoxycarbonyl-1,4-dihydropyridine] | 104 | – | 0.48 (≈ 1.11 µM) | – |
| CCOC(=O)C1=C(COC(=O)NC)NC(C)=C(C(=O)OC(C)C)C1c1cccc([N+](=O)[O-])c1 (stereo not drawn) [(8), 2-N--Methylaminocarbonyloxymethyl-6-methyl-4-(3-nitrophenyl)-3-ethoxycarbonyl-5-isopropoxycarbonyl-1,4-dihydropyridine] | 37 | – | 0.23 (≈ 0.498 µM) | – |
| CCCOCCOC(=O)C1=C(COC(N)=O)NC(C)=C(C(=O)OCC)C1c1cccc([N+](=O)[O-])c1 (stereo not drawn) [(11), 2-Aminocarbonyloxymethyl-6-methyl-4-(3-nitrophenyl)-5-ethoxycarbonyl-3-(β-propoxyethoxy)carbonyl-1,4-dihydropyridine] | 123 | 0.25 (≈ 0.509 µM) | – | – |
| COC(=O)C1=C(C)NC(COC(N)=O)=C(C(=O)OC)C1c1cccc([N+](=O)[O-])c1 (stereo not drawn) [(3), 2-Aminocarbonyloxymethyl-6-methyl-4-(3-nitrophenyl)-3,5-dimethoxycarbonyl-1,4-dihydropyridine] | 167 | – | 0.36 (≈ 0.888 µM) | – |
| CCOC(=O)C1=C(COC(N)=O)NC(C)=C(C(=O)OC(C)C)C1c1cccc([N+](=O)[O-])c1 (stereo not drawn) [(7), 2-Aminocarbonyloxymethyl-6-methyl-4-(3-nitrophenyl)-3-ethoxycarbonyl-5-isopropoxycarbonyl-1,4-dihydropyridine] | 76 | – | 0.24 (≈ 0.536 µM) | – |
| CCCOCCOC(=O)C1=C(COC(N)=O)NC(C)=C(C(=O)OCCN(C)Cc2ccccc2)C1c1cccc([N+](=O)[O-])c1 (stereo not drawn) [(19), 2-Aminocarbonyloxymethyl-6-methyl-4-(3-nitrophenyl)-3-(β-propoxyethoxy)carbonyl-5-(β-N--methylbenzylaminoethoxy)carbonyl-1,4-dihydropyridine] | 168 | 0.18 (≈ 0.295 µM) | – | – |
| COC(=O)C1=C(C)NC(C)=C(C(=O)OC)C1c1ccccc1[N+](=O)[O-] [nifedipine, 2,6-Dimethyl-4-(2-nitrophenyl)-3,5-dimethoxycarbonyl-1,4-dihydropyridine] | – | 0.22 (≈ 0.635 µM) | 0.29 (≈ 0.837 µM) | BP (systemic blood pressure) % decrease (Beagle dogs; 1 μg/kg i.v.): 2%; CF (coronary blood flow) % increase (Beagle dogs; 1 μg/kg i.v.): 10%; FAF (femoral artery blood flow) % increase (Beagle dogs; 1 μg/kg i.v.): -3%; HR (heart rate) % increase (Beagle dogs; 1 μg/kg i.v.): 0.6%; BP (systemic blood pressure) % decrease (Beagle dogs; 3 μg/kg i.v.): 10%; CF (coronary blood flow) % increase (Beagle dogs; 3 μg/kg i.v.): 48%; FAF (femoral artery blood flow) % increase (Beagle dogs; 3 μg/kg i.v.): -4%; HR (heart rate) % increase (Beagle dogs; 3 μg/kg i.v.): 2%; BP (systemic blood pressure) % decrease (Beagle dogs; 10 μg/kg i.v.): 18%; CF (coronary blood flow) % increase (Beagle dogs; 10 μg/kg i.v.): 86%; FAF (femoral artery blood flow) % increase (Beagle dogs; 10 μg/kg i.v.): 10%; HR (heart rate) % increase (Beagle dogs; 10 μg/kg i.v.): 4% |
| CCOC(=O)C1=C(C)NC(COC(=O)NC)=C(C(=O)OCC)C1c1ccccc1[N+](=O)[O-] (stereo not drawn) [(6), 2-N--Methylaminocarbonyloxymethyl-6-methyl-4-(2-nitrophenyl)-3,5-diethoxycarbonyl-1,4-dihydropyridine] | 30 | – | 0.45 (≈ 1.01 µM) | – |
| COC(=O)C1=C(COC(N)=O)NC(C)=C(C(=O)OCCN(C)Cc2ccccc2)C1c1cccc([N+](=O)[O-])c1 (stereo not drawn) [(15), 2-Aminocarbonyloxymethyl-6-methyl-4-(3-nitrophenyl)-3-methoxycarbonyl-5-(β-N--methylbenzylaminoethoxy)carbonyl-1,4-dihydropyridine] | > 200 | 0.4 (≈ 0.743 µM) | – | – |
| CCCOCCOC(=O)C1=C(C)NC(COC(=O)NC)=C(C(=O)OCCOCCC)C1c1cccc([N+](=O)[O-])c1 (stereo not drawn) [(13), 2-N--Methylaminocarbonyloxymethyl-6-methyl-4-(3-nitrophenyl)-3,5-bis[(β-propoxyethoxy)carbonyl]-1,4-dihydropyridine] | 104 | 0.04 (≈ 0.071 µM) | – | – |
| CCOC(=O)C1=C(C)NC(COC(=O)NC2CCCCC2)=C(C(=O)OCCOC)C1c1cccc([N+](=O)[O-])c1 (stereo not drawn) [(14), 2-N--Cyclohexylaminocarbonyloxymethyl-6-methyl-5-ethoxycarbonyl-3-(β-methoxyethoxy)carbonyl-1,4-dihydropyridine] | 88 | 0.35 (≈ 0.642 µM) | – | – |
| CNC(=O)OCC1=C(C(=O)OC)C(c2cccc([N+](=O)[O-])c2)C(C(=O)OCCN(C)Cc2ccccc2)=C(C)N1 (stereo not drawn) [(16), 2-N--Methylaminocarbonyloxymethyl-6-methyl-4-(3-nitrophenyl)-3-methoxycarbonyl-5-(β-N--methylbenzylaminoethoxy)carbonyl-1,4-dihydropyridine] | 146 | 0.25 (≈ 0.452 µM) | – | – |
